Results published in patent publication EP0676201B1, “Use of a riminophenazine for treating MDR resistance” (priority 1994, dated 1995).
≈ marks a conversion by molar mass, not a printed value. Read-outs that look alike come from different tables or passages of the source.

How the values were obtained:
H69/LX4 = experiment: MTT assay, 7-day exposure: sensitivity of resistant (MDR) cells to chemotherapeutic agents with or without MDR inhibitor (Example 1); format: cell-based; conditions: Homo sapiens, 168 h
Source text: (§1) A further test using no MDR inhibitor was used as a standard.
The cell lines used were human small cell lung cancer cell line HP69/P and a multi-drug resistant (MDR) sub-line H69/LX4, both of which were supplied by the MRC Clinical Oncology and Radiotherapeutics Unit, Hills Road, Cambridge, England. The maintenance of the cell lines and drug response assays was done as described by Twentyman et al in British Journal of Cancer Volume 65 pages 335-340. The H69/LX4 line was originally described by Twentyman et al in British Journal of Cancer Volume 53, pages 529-637 (1986).
The data in parenthesis represents fold sensitivity compared with the chemotherapeutic agent without the MDR inhibitor.

H69/P = experiment: MTT assay, 7-day exposure: sensitivity of parent cells to chemotherapeutic agents with or without MDR inhibitor (Example 1); format: cell-based, human; conditions: for IC50: Homo sapiens, 168 h
Source text: as §1

K562/MMB = experiment: MTT assay, 7-day exposure to riminophenazines alone or with fixed doxorubicin or vinblastine (Example 4); format: cell-based; conditions: Homo sapiens, K562, 168 h
Source text: A third cell line (562/MMB) used was a MDR leukemia cell line selected in vitro by progressive exposure to increasing concentrations of vinblastine in order to increase P-glycoprotein expression. […] This cell line expresses high levels of P-glycoprotein as determined by flowcytometry using the monoclonal antibody (MRK 16) against this molecule.
The effects were examined of a 7-day exposure of selected compounds on the sensitivity of the cell line (K562/MMB) to the standard chemotherapeutic agents doxorubicin and vinblastine, using the MTT assay.
The cells were seeded at 1 x 10^4 cells per well in 96 well microlitre plates in a volume of 200 µl of RPMI 1640 medium containing 10 % fetal calf serum and incubated with doxorubicin (12.5 ng/ml) or vinblastine (3 ng/ml). The amounts of MDR modulators used were 0.03, 0.06, 0.125, 0.5, 1.0 and 2.0 µg/ml.
After incubation at 37 °C for 7 days, 20 µl MTT (i.e. 3-[4,5-dimethylthiazol-2-yl]2,5-diphenyl-tetrazolium bromide) at 5 mg/ml was added to each well and the plates incubated for a further 4 hours. The cells were washed with phosphate buffered saline and the intracellular formazan crystals solubilized with dimethylsulphoxide, and the absorbency measured spectrophotometrically at a test wavelength of 540 nm and a reference wavelength of 620 nm.

[1] = read-out: IC50 of chemotherapeutic agent, MDR INHIBITOR CsA
[2] = H69/LX4, with B669 0.5 µg/ml, 7 day exposure, read-out: IC50 of chemotherapeutic agent, MDR INHIBITOR B669
[3] = H69/LX4, with Clofazimine 1 µg/ml, 7 day exposure, read-out: IC50 of chemotherapeutic agent, MDR INHIBITOR Clofazimine (B663)
[4] = in the presence of doxorubicin (12 ng/ml), read-out: IC 50 of riminophenazine, Doxorubicin
[5] = in the presence of vinblastine (3 ng/ml), read-out: IC 50 of riminophenazine, Vinblastine
[6] = riminophenazine alone, mean of 2 experiments, read-out: IC 50 of riminophenazine, None

CO[C@@]12[C@H](COC(N)=O)C3=C(C(=O)C(C)=C(N)C3=O)N1C[C@@H]1N[C@@H]12 [Mitomycin C]
IC50 (H69/LX4; [1]): 0.08 µg/mL (≈ 0.239 µM)
IC50 (H69/LX4; [2]): 0.04 µg/mL (≈ 0.12 µM)
IC50 (H69/LX4; [3]): 0.06 µg/mL (≈ 0.179 µM)
IC50 (H69/P; read-out: IC50 of chemotherapeutic agent, MDR INHIBITOR B669): 0.01 µg/mL (≈ 0.0299 µM)
IC50 (H69/P; read-out: IC50 of chemotherapeutic agent, MDR INHIBITOR Clofazimine (B663)): 0.01 µg/mL (≈ 0.0299 µM)
IC50 (H69/P; [1]): 0.009 µg/mL (≈ 0.0269 µM)

CC[C@]1(O)C[C@@H]2CN(CCc3c([nH]c4ccccc34)[C@@](C(=O)OC)(c3cc4c(cc3OC)N(C)[C@H]3[C@@](O)(C(=O)OC)[C@H](OC(C)=O)[C@]5(CC)C=CCN6CC[C@]43[C@@H]65)C2)C1 [Vinblastine]
IC50 (H69/LX4; [1]): 0.008 µg/mL (≈ 0.00986 µM)
IC50 (H69/LX4; H69/LX4, no MDR inhibitor, 7 day exposure, mean of 2 - 4 experiments, read-out: IC50 of chemotherapeutic agent, MDR INHIBITOR None): 0.12 µg/mL (≈ 0.148 µM)
IC50 (H69/LX4; [2]): 0.008 µg/mL (≈ 0.00986 µM)
IC50 (H69/LX4; [3]): 0.008 µg/mL (≈ 0.00986 µM)
fold sensitivity compared with the chemotherapeutic agent without the MDR inhibitor, B669 (H69/P; H69/P, with B669 0.5 µg/ml, value in parenthesis): 1.1 fold
fold sensitivity compared with the chemotherapeutic agent without the MDR inhibitor, Clofazimine (B663) (H69/P; H69/P, with Clofazimine 1 µg/ml, value in parenthesis): 1.3 fold
fold sensitivity compared with the chemotherapeutic agent without the MDR inhibitor, CsA (H69/P; H69/P, with CsA 5 µg/ml, value in parenthesis): 1.4 fold
IC50 (H69/P; [1]): 0.0007 µg/mL (≈ 0.000863 µM)
IC50 (H69/P; H69/P, no MDR inhibitor, 7 day exposure, mean of 2 - 4 experiments, read-out: IC50 of chemotherapeutic agent, MDR INHIBITOR None): 0.001 µg/mL (≈ 0.00123 µM)
IC50 (H69/P; H69/P, with B669 0.5 µg/ml, 7 day exposure, read-out: IC50 of chemotherapeutic agent, MDR INHIBITOR B669): 0.0009 µg/mL (≈ 0.00111 µM)
IC50 (H69/P; H69/P, with Clofazimine 1 µg/ml, 7 day exposure, read-out: IC50 of chemotherapeutic agent, MDR INHIBITOR Clofazimine (B663)): 0.0008 µg/mL (≈ 0.000986 µM)

CC(C)c1ccc(Nc2cc3nc4ccccc4n(-c4ccc(C(C)C)cc4)c-3cc2=NC2CC(C)(C)NC(C)(C)C2)cc1 [Compound B4158, N,5-bis(4-isopropylphenyl)-3,5-dihydro-3-[(2',2',6',6'-tetramethyl-4-piperidyl)-imino]-2-phenazinamine]
IC50 (K562/MMB; [4]): 0.155 µg/mL
IC50 (K562/MMB; [5]): 0.058 µg/mL
IC50 (K562/MMB; [6]): 0.272 µg/mL (≈ 0.464 µM)

CC1(C)CC(N=c2cc3n(-c4cc(Cl)cc(Cl)c4)c4ccccc4nc-3cc2Nc2cc(Cl)cc(Cl)c2)CC(C)(C)N1 [Compound B4121]
IC50 (K562/MMB; [4]): 0.722 µg/mL
IC50 (K562/MMB; [6]): 2.25 µg/mL (≈ 3.52 µM)

COc1ccc(Nc2cc3nc4ccccc4n(-c4ccc(OC)cc4)c-3cc2=NC2CC(C)(C)NC(C)(C)C2)cc1 [Compound B4174, N,5-bis(4-methoxyphenyl)-3,5-dihydro-3-[(2',2',6',6'-tetramethyl-4-piperidyl)-imino]-2-phenazinamine]
IC50 (K562/MMB; [4]): 0.21 µg/mL
IC50 (K562/MMB; [5]): 0.178 µg/mL
IC50 (K562/MMB; [6]): 0.316 µg/mL (≈ 0.563 µM)

CC1(C)CC(N=c2cc3n(-c4cccc(Cl)c4)c4ccc(Cl)cc4nc-3cc2Nc2cccc(Cl)c2)CC(C)(C)N1 [Compound B4123, N,5-bis(3-chlorophenyl)-8-chloro-3,5-dihydro-3[(2,2',6',6'-tetramethyl-4-piperidyl)-imino]-2-phenazinamine]
IC50 (K562/MMB; [4]): 0.181 µg/mL
IC50 (K562/MMB; [5]): < 0.05 µg/mL
IC50 (K562/MMB; [6]): 0.333 µg/mL (≈ 0.55 µM)

CC1(C)CC(N=c2cc3n(-c4ccccc4)c4ccccc4nc-3cc2Nc2ccccc2)CC(C)(C)N1 [Compound B3962, N,5-bis(phenyl)-3,5-dihydro-3-[(2',2',6',6'-tetramethyl-4-piperidyl)imino]-2-phenazinamine]
IC50 (K562/MMB; [4]): 0.159 µg/mL
IC50 (K562/MMB; [5]): 0.07 µg/mL
IC50 (K562/MMB; [6]): 0.285 µg/mL (≈ 0.568 µM)

CC1(C)CC(N=c2cc3n(-c4ccc(Cl)cc4)c4ccc(Cl)cc4nc-3cc2Nc2ccc(Cl)cc2)CC(C)(C)N1 [Compound B4090]
IC50 (K562/MMB; [4]): 0.139 µg/mL
IC50 (K562/MMB; [5]): < 0.05 µg/mL
IC50 (K562/MMB; [6]): 0.197 µg/mL (≈ 0.326 µM)

Cc1ccc(Nc2cc3nc4ccccc4n(-c4ccc(C)cc4)c-3cc2=NC2CCNCC2)cc1 [Compound B4070, N,5-bis(4-methylphenyl)-3,5-dihydro-3-[(4-piperidyl)imino]-2-phenazinamine]
IC50 (K562/MMB; [4]): 0.193 µg/mL
IC50 (K562/MMB; [5]): 0.054 µg/mL
IC50 (K562/MMB; [6]): 0.159 µg/mL (≈ 0.336 µM)

CCN(CC)CCCN=c1cc2n(-c3ccc(Cl)c(Cl)c3)c3ccccc3nc-2cc1Nc1ccc(Cl)c(Cl)c1 [Compound B4154]
IC50 (K562/MMB; [4]): 0.296 µg/mL
IC50 (K562/MMB; [5]): 0.118 µg/mL
IC50 (K562/MMB; [6]): 0.353 µg/mL (≈ 0.575 µM)
